Experimental findings from patent publication US12589087B2, “Enantiomer selective action on neurotransmission” (The Board of Trustees of the Leland Stanford Junior …, priority 2021, dated 2026) are described below.

The test system of experiment [1] is mouse hippocampal slice cultures. In words: Kainic acid neurodegeneration in hippocampal slice cultures (propidium iodide). It counts as cell-based. As to the method: We employed a standard technique of ex vivo experimentation to determine the efficacy of 2MeGlu, 2MeGln, and 4APA to prevent neurodegeneration. Mouse hippocampal slice cultures were prepared and then exposed to one of the three test compounds at either 5 or 50 μM for one hour. Then media was changed to contain either 2 or 5 μM kanic acid (KA) for 24 hr. […] After 24, the amount of neurodegeneration was assayed with propidium iodide staining. Increasing the dose of KA led to greater neurodegeneration at 5 μM than at 2 μM.

The next experiment concerns the target T1, GABAA α3β2γ2 (Homo sapiens, UniProt P18507+P34903+P47870).
T1 construct: host or cells: HEK 293 (stably expressing)
The experiment can be described thus: FLIPR functional assay, HEK 293 cells (agonist/PAM/antagonist). It counts as cell-based. As to conditions: top concentration 1 mM, read-out: EC50, functional agonist receptor assay. As to the method:
(§1) Functional assays of all GABAA, NMDA (GluN2A-GluN2D) and AMPA (GluA2) receptor subunits were performed by SB Drug Discovery as a part of their CNS discovery panel using FLIPR technology. Briefly, receptor-expressing HEK 293 cell lines were incubated in a red membrane potential dye in HEPES:HBSS pH 7.4 buffer and the fluorescence (λex: 488, λex: 510-570) was monitored over time as the test compounds and/or reference compounds were added to the solution. In agonist assay, only test compounds were added. In positive allosteric modulator assay, cells were preincubated with test compounds and then low concentration (approximately EC20) of an appropriate agonist was added. In antagonist assay, cells were preincubated with test compounds and then high concentration (approximately EC80) of an appropriate agonist was added. For GABAA assays, GABA was used as the agonist, picrotoxin was used as the reference antagonist and allopregnanolone was used as the reference positive allosteric modulator (PAM). For NMDA assays, a mixture of glutamate, glycine and CaCl2 was used as the agonist, MK801 was the reference antagonist and pregnenolone sulfate or GNE 9278 were used as reference PAMs. For AMPA assays, glutamate was used as the agonist, CNQX was the reference antagonist and cyclothiazide was used as the reference PAM. All compounds were tested at 7 concentration points in triplicate and EC50/IC50 was determined where applicable. Functional GABAB assay was performed by Eurofins Discovery (Cerep) using Ca^2+-dependent fluorimetry in RBL cells expressing human GABAB (B1/B2) receptor. All compounds were tested at a single concentration of 100 uM in triplicate.
(§2) All receptor assays were performed exactly as described in Example 1. Functional assays of all GABAA, NMDA (GluN2A-GluN2D) and AMPA (GluA2) receptor subunits were performed by SB Drug Discovery as a part of their CNS discovery panel using FLIPR technology. All compounds were tested at 7 concentrations in triplicate and EC50/IC50 was determined where applicable. Functional GABAB assay was performed by Eurofins Discovery (Cerep) using Ca^2+-dependent fluorimetry in RBL cells expressing human GABAB (B1/B2) receptor. All compounds were tested at a single concentration of 100 uM in triplicate. Nonspecific AMPA, kainate and NMDA binding assays were performed by Eurofins Discovery (Cerep) using rat cerebral cortex membranes and radiolabeled [^3H]AMPA, [^3H]kainic acid and [^3H]CGP 39653, respectively. All compounds were tested at a single concentration of 100 uM in triplicate. mGluR1, mGluR2, mGluR5 and GABAB binding assays were performed by Eurofins Discovery. All compounds were tested at a single concentration of 100 uM in triplicate.

Another experiment deals with GABAA α6β1γ2 (Homo sapiens, UniProt P18505+Q16445). Described as above. Type of experiment: cell-based. The settings on record: top concentration 1 mM, read-out: EC50, functional agonist receptor assay. The protocol: as §1, §2
In a further experiment the target is T2, GABAA α2β2γ2 (Homo sapiens, UniProt P18507+P47869+P47870).
T2 construct: host or cells: HEK 293 (stably expressing)
Described as above. It counts as cell-based. The settings on record: top concentration 1 mM, read-out: EC50, functional agonist receptor assay. The protocol:
as §1, §2

The next experiment deals with T3, GABAA α4β1γ2 (Homo sapiens, UniProt P18505+P18507+P48169).
T3 construct: host or cells: HEK 293 (stably expressing)
The experiment is described as above. Type of experiment: cell-based. The settings on record: top concentration 1 mM, read-out: EC50, functional agonist receptor assay. As to the method: as §1, §2

A further experiment has as its target T4, GABAA α4β3γ2 (Homo sapiens, UniProt P18507+P28472+P48169).
T4 construct: host or cells: HEK 293 (stably expressing)
The description is as above. Type of experiment: cell-based. The settings on record: top concentration 1 mM, read-out: EC50, functional agonist receptor assay. As to the method: as §1, §2

For the next experiment, the target named is T5, GABAA α2β3γ2 (Homo sapiens, UniProt P18507+P28472+P47869).
T5 construct: host or cells: HEK 293 (stably expressing)
The description is as above. It counts as cell-based. As to conditions: top concentration 1 mM, read-out: EC50, functional agonist receptor assay. As to the method: as §1, §2

In another experiment the target is GABAA α6β3γ2 (Homo sapiens, UniProt P28472+Q16445). The description is as above. It counts as cell-based. As to conditions: top concentration 1 mM, read-out: EC50, functional agonist receptor assay. The protocol:
as §1, §2

A further experiment has as its target T6, GABAA α3β1γ2 (Homo sapiens, UniProt P18505+P18507+P34903).
T6 construct: host or cells: HEK 293 (stably expressing)
The experiment is described as above. It counts as cell-based. As to conditions: top concentration 1 mM, read-out: EC50, functional agonist receptor assay. As to the method:
as §1, §2

In a further experiment the target is T7, GABAA α4β2γ2 (Homo sapiens, UniProt P18507+P47870+P48169).
T7 construct: host or cells: HEK 293 (stably expressing)
The description is as above. It counts as cell-based. As to conditions: top concentration 1 mM, read-out: EC50, functional agonist receptor assay. The protocol: as §1, §2

The target in another experiment is T8, GABAA α3β3γ2 (Homo sapiens, UniProt P18507+P28472+P34903).
T8 construct: host or cells: HEK 293 (stably expressing)
The description is as above. It counts as cell-based. The settings on record: top concentration 1 mM; for EC50: read-out: EC50, functional agonist receptor assay. The protocol:
as §1, §2

A further experiment concerns the target T9, GABAB (B1a/B2) (Homo sapiens, UniProt Q9UBS5).
T9 construct: host or cells: CHO-K1
In words: radioligand binding assay. The protocol:
(§3) Nonspecific AMPA, kainate and NMDA binding assays were performed by Eurofins Discovery (Cerep) using rat cerebral cortex membranes and radiolabeled [^3H]AMPA, [^3H]kainic acid and [^3H]CGP 39653, respectively. All compounds were tested at a single concentration of 100 uM in triplicate. mGluR1, mGluR2, mGluR5 and GABAB binding assays were performed by Eurofins Discovery. mGluR1 assay was performed using rat cerebellum membranes and radiolabeled [^3H]quisqalic acid. mGluR2 assay was performed using recombinant Chem-1 cells and [^3H]LY341495. mGluR5 and GABAB binding assays were performed using recombinant CHO-K1 cells and […], respectively. All compounds were tested at a single concentration of 100 uM in triplicate.
as §2

The target of another experiment is T10, GABAB (B1b/B2) (Homo sapiens, UniProt Q9UBS5).
T10 construct: host or cells: CHO-K1
The experiment can be described thus: radioligand binding assay. The protocol:
as §3, §2

Another experiment concerns kainate nonspecific. In words: radioligand binding assay, cerebral cortex membranes, [3H]kainic acid. The settings on record: kainate nonspec, rat; 100 μM. The protocol: as §3
(§4) All receptor assays were performed exactly as described in Example 1. Functional assays of all GABAA, NMDA (GluN2A-GluN2D) and AMPA (GluA2) receptor subunits were performed by SB Drug Discovery as a part of their CNS discovery panel using FLIPR technology. All compounds were tested at 7 concentrations in triplicate and EC50/IC50 was determined where applicable. Functional GABAB assay was performed by Eurofins Discovery (Cerep) using Ca^2+-dependent fluorimetry in RBL cells expressing human GABAB (B1/B2) receptor. All compounds were tested at a single concentration of 100 uM in triplicate. […]

The subject of another experiment is mGluR1. The experiment can be described thus: radioligand binding assay, cerebellum membranes. The settings on record: mGluR1, rat; 100 μM. The protocol: as §3, §4
The target of another experiment is T11, mGluR5 (Homo sapiens, UniProt P41594).
T11 construct: host or cells: CHO-K1 cells
In words: radioligand binding assay, recombinant CHO-K1 cells. The protocol:
as §3, §2

T8 sequence (P34903 29-492): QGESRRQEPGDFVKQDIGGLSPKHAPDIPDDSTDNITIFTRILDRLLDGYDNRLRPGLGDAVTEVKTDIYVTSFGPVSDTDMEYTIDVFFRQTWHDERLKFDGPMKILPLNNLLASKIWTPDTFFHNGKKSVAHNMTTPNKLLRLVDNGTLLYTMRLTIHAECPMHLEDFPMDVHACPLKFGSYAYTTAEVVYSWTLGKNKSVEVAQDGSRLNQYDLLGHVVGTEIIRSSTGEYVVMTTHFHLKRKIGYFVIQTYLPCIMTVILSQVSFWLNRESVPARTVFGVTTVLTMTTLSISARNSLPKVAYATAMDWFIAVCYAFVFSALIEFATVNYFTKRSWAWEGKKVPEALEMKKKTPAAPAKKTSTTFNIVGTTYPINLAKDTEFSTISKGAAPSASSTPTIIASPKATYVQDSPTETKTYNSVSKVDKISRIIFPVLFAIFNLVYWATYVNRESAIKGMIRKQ
T8 sequence (P28472 26-473): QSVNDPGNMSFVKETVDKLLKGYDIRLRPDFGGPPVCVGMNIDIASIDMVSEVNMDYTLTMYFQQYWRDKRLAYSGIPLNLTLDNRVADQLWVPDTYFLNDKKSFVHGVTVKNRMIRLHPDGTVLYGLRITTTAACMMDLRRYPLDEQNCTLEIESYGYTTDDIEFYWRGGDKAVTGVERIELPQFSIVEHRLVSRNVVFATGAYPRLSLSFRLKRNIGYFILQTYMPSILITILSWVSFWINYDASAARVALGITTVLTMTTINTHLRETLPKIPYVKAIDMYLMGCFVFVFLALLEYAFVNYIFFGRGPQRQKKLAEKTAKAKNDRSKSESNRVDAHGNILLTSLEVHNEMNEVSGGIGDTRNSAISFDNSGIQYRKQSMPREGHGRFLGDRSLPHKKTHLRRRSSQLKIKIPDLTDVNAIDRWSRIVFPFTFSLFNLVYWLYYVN
T8 sequence (P18507 40-475): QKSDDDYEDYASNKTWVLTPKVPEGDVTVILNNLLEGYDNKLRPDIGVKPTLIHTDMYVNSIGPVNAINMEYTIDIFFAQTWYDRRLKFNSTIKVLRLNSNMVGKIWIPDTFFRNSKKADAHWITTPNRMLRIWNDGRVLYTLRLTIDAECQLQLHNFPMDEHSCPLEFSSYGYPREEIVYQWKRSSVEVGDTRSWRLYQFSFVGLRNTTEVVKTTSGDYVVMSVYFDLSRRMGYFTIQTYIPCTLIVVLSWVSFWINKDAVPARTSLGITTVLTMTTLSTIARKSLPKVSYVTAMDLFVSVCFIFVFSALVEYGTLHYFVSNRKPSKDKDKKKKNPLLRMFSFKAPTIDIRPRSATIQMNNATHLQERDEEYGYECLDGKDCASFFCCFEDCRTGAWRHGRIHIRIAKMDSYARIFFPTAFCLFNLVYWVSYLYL
T11 sequence (P41594 21-1212): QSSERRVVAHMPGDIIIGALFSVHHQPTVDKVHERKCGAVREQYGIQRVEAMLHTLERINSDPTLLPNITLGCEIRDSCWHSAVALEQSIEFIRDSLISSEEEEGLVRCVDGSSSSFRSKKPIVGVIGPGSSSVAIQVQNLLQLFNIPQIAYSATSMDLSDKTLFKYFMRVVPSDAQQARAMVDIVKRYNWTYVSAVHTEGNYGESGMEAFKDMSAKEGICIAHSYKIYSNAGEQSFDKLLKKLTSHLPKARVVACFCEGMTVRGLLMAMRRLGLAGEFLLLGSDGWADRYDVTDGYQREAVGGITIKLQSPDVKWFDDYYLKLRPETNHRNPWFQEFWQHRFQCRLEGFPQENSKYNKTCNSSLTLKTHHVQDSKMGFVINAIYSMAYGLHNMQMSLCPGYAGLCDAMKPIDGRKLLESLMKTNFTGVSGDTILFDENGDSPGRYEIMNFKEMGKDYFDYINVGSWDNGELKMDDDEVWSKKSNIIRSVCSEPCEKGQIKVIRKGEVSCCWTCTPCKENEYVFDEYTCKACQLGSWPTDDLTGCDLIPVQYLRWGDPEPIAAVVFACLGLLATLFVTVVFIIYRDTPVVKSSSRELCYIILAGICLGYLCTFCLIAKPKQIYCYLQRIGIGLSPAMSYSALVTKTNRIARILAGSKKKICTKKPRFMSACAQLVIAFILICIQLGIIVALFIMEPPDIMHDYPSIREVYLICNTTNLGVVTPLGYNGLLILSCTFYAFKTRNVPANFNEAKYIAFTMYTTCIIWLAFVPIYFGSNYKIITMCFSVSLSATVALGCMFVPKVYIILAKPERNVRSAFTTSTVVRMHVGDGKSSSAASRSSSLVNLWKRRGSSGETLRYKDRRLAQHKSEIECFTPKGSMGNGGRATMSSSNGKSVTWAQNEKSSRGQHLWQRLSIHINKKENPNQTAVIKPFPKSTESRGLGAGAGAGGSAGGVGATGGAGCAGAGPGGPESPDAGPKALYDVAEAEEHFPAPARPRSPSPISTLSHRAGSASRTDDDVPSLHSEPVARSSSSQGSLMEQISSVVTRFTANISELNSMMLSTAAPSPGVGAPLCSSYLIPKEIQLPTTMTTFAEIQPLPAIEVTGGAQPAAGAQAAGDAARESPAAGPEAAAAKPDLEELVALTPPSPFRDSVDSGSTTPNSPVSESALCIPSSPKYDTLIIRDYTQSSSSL
T6 sequence (P34903 29-492): as the sequence (P34903 29-492) above
T6 sequence (P18505 26-474): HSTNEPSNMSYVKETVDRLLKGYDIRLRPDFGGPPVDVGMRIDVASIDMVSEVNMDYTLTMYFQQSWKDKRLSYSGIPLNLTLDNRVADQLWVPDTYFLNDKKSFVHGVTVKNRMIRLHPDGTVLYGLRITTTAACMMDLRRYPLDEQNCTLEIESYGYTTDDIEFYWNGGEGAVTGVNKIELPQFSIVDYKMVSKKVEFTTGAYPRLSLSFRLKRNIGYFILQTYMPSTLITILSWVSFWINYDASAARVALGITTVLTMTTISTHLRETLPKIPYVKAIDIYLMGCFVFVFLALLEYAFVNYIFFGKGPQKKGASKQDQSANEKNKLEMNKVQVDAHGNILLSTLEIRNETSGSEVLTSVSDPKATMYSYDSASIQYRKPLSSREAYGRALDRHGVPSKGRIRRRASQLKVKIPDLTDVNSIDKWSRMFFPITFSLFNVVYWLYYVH
T6 sequence (P18507 40-475): as the sequence (P18507 40-475) above
T1 sequence (P34903 29-492): as the sequence (P34903 29-492) above
T1 sequence (P47870 25-512 limits assumed): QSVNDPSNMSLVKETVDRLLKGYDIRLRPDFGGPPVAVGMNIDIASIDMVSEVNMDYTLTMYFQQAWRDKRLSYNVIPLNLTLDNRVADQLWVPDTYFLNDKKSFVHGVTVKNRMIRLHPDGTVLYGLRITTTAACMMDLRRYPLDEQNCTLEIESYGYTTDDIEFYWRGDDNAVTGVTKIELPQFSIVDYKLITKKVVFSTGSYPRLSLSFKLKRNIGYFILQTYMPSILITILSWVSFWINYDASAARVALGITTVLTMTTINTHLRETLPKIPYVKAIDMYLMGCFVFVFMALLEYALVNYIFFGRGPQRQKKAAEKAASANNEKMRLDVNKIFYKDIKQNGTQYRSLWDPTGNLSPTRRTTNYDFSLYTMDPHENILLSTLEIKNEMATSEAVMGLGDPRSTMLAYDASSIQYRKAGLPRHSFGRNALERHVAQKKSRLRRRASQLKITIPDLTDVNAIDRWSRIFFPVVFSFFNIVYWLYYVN
T1 sequence (P18507 40-475): as the sequence (P18507 40-475) above
T2 sequence (P47869 29-451): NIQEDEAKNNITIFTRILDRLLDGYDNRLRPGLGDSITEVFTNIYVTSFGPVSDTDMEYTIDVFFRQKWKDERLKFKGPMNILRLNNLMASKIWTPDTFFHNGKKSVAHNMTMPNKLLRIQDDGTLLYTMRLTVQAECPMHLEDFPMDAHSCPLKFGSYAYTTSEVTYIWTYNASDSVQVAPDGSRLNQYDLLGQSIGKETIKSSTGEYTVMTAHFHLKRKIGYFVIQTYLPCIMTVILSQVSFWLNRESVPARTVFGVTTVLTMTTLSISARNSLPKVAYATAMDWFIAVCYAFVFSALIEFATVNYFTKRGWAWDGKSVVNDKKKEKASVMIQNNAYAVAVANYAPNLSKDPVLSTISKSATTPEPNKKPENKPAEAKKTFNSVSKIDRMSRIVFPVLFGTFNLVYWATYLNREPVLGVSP
T2 sequence (P47870 25-512 limits assumed): as the sequence (P47870 25-512 limits assumed) above
T2 sequence (P18507 40-475): as the sequence (P18507 40-475) above
T5 sequence (P47869 29-451): as the sequence (P47869 29-451) above
T5 sequence (P28472 26-473): as the sequence (P28472 26-473) above
T5 sequence (P18507 40-475): as the sequence (P18507 40-475) above
GABAA α6β1γ2, sequence (Q16445 20-453): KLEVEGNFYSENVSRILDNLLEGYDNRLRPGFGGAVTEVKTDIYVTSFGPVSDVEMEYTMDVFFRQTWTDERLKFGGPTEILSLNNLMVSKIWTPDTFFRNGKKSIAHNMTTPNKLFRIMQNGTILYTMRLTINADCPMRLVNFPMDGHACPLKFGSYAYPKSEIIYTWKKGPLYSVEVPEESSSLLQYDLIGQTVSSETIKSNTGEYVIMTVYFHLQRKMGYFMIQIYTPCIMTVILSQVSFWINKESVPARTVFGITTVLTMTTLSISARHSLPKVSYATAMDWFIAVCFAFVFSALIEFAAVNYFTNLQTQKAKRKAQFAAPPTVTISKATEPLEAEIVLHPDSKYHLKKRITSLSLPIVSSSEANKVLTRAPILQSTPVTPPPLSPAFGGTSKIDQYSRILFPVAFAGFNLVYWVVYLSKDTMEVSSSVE
GABAA α6β1γ2, sequence (P18505 26-474): as the sequence (P18505 26-474) above
GABAA α6β1γ2, sequence (P18507 40-475 partner): as the sequence (P18507 40-475) above
GABAA α6β3γ2, sequence (Q16445 20-453): as the sequence (Q16445 20-453) above
GABAA α6β3γ2, sequence (P28472 26-473): as the sequence (P28472 26-473) above
GABAA α6β3γ2, sequence (P18507 40-475 partner): as the sequence (P18507 40-475) above

Consider `CC(N)(CCC(N)=O)C(=O)O` (racemic) [rac-2MeGln, rac-2-methylglutamine], for which, in experiment [1] (50 μM compound, lower dose of KA (2 μM)), the reduction of neurodegeneration entry is “approximately 50%”. The “neuroprotection at the higher dose of KA” value in experiment [1] (5 or 50 μM compound, 5 μM KA) is “Neither dose of 2MeGlu or 2MeGln was neuroprotective”.
As to `C[C@@](N)(CCC(=O)O)C(=O)O` [(R)-2MeGlu, (R)-2-methylglutamic acid], the EC50 (in general, the concentration needed to bring the measured effect to its halfway point) at GABAA α3β2γ2 is 1040 µM; on GABAA α6β1γ2, 772 µM; at GABAA α2β2γ2, 660 µM; at GABAA α4β1γ2, 870 µM; on GABAA α4β3γ2 it was > 1000 µM; on GABAA α2β3γ2, 622 µM. The EC50 at GABAA α6β3γ2 was > 1000 µM; at GABAA α3β1γ2, 742 µM; on GABAA α4β2γ2 it was 1250 µM; at GABAA α3β3γ2, 959 µM. Besides, the inhibition (commonly the relative decrease from the control value, in per cent) at 100 µM is 18% on GABAB (B1a/B2), 13% at GABAB (B1b/B2), -20% at mGluR5 (first mGluR5 row of Table 5) and -2% at mGluR5 (second mGluR5 row of Table 5). The entries for the “% of radioligand binding inhibition” value in the experiment with kainate nonspecific and in the experiment on mGluR1 were 18% and −3%, respectively.
As for `C[C@](N)(CCC(=O)O)C(=O)O` [(S)-2MeGlu, (S)-2-methylglutamic acid], the EC50 at GABAA α3β2γ2 was 961 µM; at GABAA α6β1γ2, 280 µM; at GABAA α2β2γ2, 530 µM; at GABAA α4β1γ2, 704 µM; at GABAA α4β3γ2 it was > 1000 µM; on GABAA α2β3γ2, 342 µM. Further, the EC50 on GABAA α6β3γ2 is 998 µM; on GABAA α3β1γ2, 782 µM; on GABAA α4β2γ2, 1020 µM; at GABAA α3β3γ2, 725 µM. Moreover, the IC50 (commonly the concentration at which inhibition is half-maximal) on GABAA α3β3γ2 (read-out: IC50, functional antagonist receptor assay) is 978 µM. Also, the inhibition at 100 µM on GABAB (B1a/B2) is 6%; at GABAB (B1b/B2), 14%; at mGluR5 (first mGluR5 row of Table 5), 11%; on mGluR5 (second mGluR5 row of Table 5) it was -4%. In addition, the “% of radioligand binding inhibition” value is on record as 20% with kainate nonspecific and 6% with mGluR1.
